The experiment deals with T1, UIS3 (PfUIS3) (Plasmodium falciparum, UniProt Q8IEU1).
T1 construct: gene PF3D7_1302200; recombinant His-mycUIS3, His tag cleaved; with LC3
Kind of experiment: ITC, C4 ([…]) titrated into a saturated solution of UIS3 with LC3, one-site model. The experiment is classed as binding. (In general: ITC needs no label: the signal is the heat of the interaction.)

Molecules are shown by their SMILES.

T1 sequence (Q8IEU1 entry or part of it): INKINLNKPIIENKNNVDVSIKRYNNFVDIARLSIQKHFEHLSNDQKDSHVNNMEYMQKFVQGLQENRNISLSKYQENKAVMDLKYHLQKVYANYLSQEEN

In the case of `N#Cc1ccc(C(=O)N2CCN(Cc3ccc(-c4noc(-c5cccc(C(F)(F)F)c5)n4)cc3)CC2)cc1` [C4, 4-{[4-(4-{5-[3-(trifluoromethyl)phenyl]-1,2,4-oxadiazol-3-yl}benzyl)piperazino]carbonyl}benzonitrile], the Kd (in general, a measure of binding affinity in units of concentration) was 0.241 µM.

The values above are taken from PMC7677311, “Disrupting Plasmodium UIS3–host LC3 interaction with a small molecule causes parasite elimination from host cells” (Communications Biology, 2020).
